{
  "source": "patent US12552755B2",
  "about": "“Cinnamic amide derivative having FXR activating effect, pharmaceutical composition containing the same as active ingredient, and method for preparing the same” (KYUNGSUNG UNIVERSITY INDUSTRY COOPERATION FOUNDATION, priority 2019, dated 2026)",
  "data": [
    {"biological_target": "T1, farnesol X receptor (FXR) (Homo sapiens, UniProt Q96RI1)", "T1 construct": "endogenous in cells; host or cells: HepG2", "T1 sequence (Q96RI1 1-486)": "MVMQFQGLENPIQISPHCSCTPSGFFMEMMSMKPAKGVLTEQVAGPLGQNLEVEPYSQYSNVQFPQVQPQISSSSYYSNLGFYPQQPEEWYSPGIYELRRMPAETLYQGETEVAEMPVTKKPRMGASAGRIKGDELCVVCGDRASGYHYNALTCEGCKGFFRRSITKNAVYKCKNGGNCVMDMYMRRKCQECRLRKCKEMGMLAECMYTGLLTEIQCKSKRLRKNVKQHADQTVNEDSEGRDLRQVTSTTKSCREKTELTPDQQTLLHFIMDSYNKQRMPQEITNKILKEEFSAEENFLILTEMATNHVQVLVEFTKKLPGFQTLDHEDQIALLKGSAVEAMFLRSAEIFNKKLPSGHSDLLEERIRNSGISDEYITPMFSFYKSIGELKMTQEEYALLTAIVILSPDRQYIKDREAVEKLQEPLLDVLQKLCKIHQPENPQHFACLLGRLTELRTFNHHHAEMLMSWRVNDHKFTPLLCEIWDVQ", "experiment": "Farnesol X receptor (FXR) reporter gene assay (dual luciferase) in HepG2 cells", "type": "cell-based", "conditions": "dose 10 uM; HepG2 cells, drug treatment 24 hours; firefly/renilla luciferase ratio, Con = 1.00", "experimental": "(§1) HepG2 cells were purchased from ATCC (Manassas, VA, USA) and cultured in Dulbecco's modified Eagle's medium (DMEM; Hyclone) containing 10% fetal bovine serum (FBS, Hyclone, Logan, UT, USA), 50 units/mL penicillin (Hyclone) and 50 μg/mL streptomycin (Hyclone). All cells were cultured to have a confluency of about 80% to 90% under the conditions of 37° C. and 5% Co2.\n(§2) In order to measure FXR transcription factor activity, HepG2 cells (1×10^5 cells/well) were cultured in a 48-well cell culture plate (SPL Life Science Co., Gyeonggido, Korea) for 20 hours and then transduced using Lipofectamin L3000 (Invitrogen, San Diego, CA, USA). Luciferase is an enzyme that catalyzes light-emitting reactions. A plasmid in which the firefly luciferase gene was fused to farnesol X receptor (FXR) and a plasmid in which the renilla luciferase gene was fused to thymidine kinase (TK) were used for transduction. Reacted were 25 μL of serum and antibiotic-free Opti-MEM® (Life Technologies, Grand Island, NY) and 0.5 μL of Lipofectamin L3000 per 0.5 μg of FXR-firefly luciferase plasmid and 10 ng of TK-renilla luciferase plasmid, and the cells were reacted with the reaction mixture for 24 hours. Thereafter, DMEM medium containing 0.1% serum was treated with a drug for 24 hours. After the reaction was completed, the drug-treated culture medium was discarded, and lysis buffer was added at 0.4 ml/well to remove the cells, then the cells were dispensed into a 96-well white plate (SPL Life Science Co.), and the luminescence level was measured using the Dual-glo Luciferase Assay System (Promega, Madison, WI, USA). For the firefly luciferase activity (to see the level of FXR expression) and renilla luciferase activity (to provide a reference value by showing constant expression), the luminescence level was measured using the GloMax Multi Detection System (Promega) and then the relative ratio (firefly luciferase activity/renilla luciferase activity) was calculated.", "values": [
      {"smiles": "CCOC(=O)CNC(=O)/C=C/c1ccc(O)cc1", "note": "[KS-001, ethyl (E)-(3-(4-hydroxyphenyl)acryloyl)glycinate]", "fold induction at 10 µM": 1.22},
      {"smiles": "CCOC(=O)CNC(=O)/C=C/c1ccc(OCc2ccccc2)cc1", "note": "[KS-002, ethyl (E)-(3-(4-(benzyloxy)phenyl)acryloyl)glycinate]", "fold induction at 10 µM": 1.22},
      {"smiles": "CCOC(=O)CNC(=O)/C=C/c1ccc(OCc2ccc(OC(F)(F)F)cc2)cc1", "note": "[KS-003, ethyl (E)-(3-(4-((4-(trifluoromethoxy)benzyl)oxy)phenyl)acryloyl)glycinate]", "fold induction at 10 µM": 1.1},
      {"smiles": "CCOC(=O)CNC(=O)/C=C/c1ccc(OCc2ccc(-c3ccccc3)cc2)cc1", "note": "[KS-004, ethyl (E)-(3-(4-([1,1′-biphenyl]-4-ylmethoxy)phenyl)acryloyl)glycinate]", "fold induction at 10 µM": 2.03},
      {"smiles": "CCOC(=O)CNC(=O)/C=C/c1ccc(OCc2ccc(F)cc2)cc1", "note": "[KS-005, ethyl (E)-(3-(4-((4-fluorobenzyl)oxy)phenyl)acryloyl)glycinate]", "fold induction at 10 µM": 1.21},
      {"smiles": "CCOC(=O)CNC(=O)/C=C/c1ccc(OCc2ccc([N+](=O)[O-])cc2)cc1", "note": "[KS-006, ethyl (E)-(3-(4-((4-nitrobenzyl)oxy)phenyl)acryloyl)glycinate]", "fold induction at 10 µM": 1.38},
      {"smiles": "CCOC(=O)CNC(=O)/C=C/c1ccc(OCc2cccc(OC(F)(F)F)c2)cc1", "note": "[KS-007, ethyl (E)-(3-(4-((3-(trifluoromethoxy)benzyl)oxy)phenyl)acryloyl)glycinate]", "fold induction at 10 µM": 1.02},
      {"smiles": "CCOC(=O)CNC(=O)/C=C/c1ccc(OCc2cccc([N+](=O)[O-])c2)cc1", "note": "[KS-008, ethyl (E)-(3-(4-((3-nitrobenzyl)oxy)phenyl)acryloyl)glycinate]", "fold induction at 10 µM": 1.5},
      {"smiles": "CCOC(=O)CNC(=O)/C=C/c1ccc(OCc2cc(F)c(F)cc2F)cc1", "note": "[KS-009, ethyl (E)-(3-(4-((2,4,5-trifluorobenzyl)oxy)phenyl)acryloyl)glycinate]", "fold induction at 10 µM": 1.44},
      {"smiles": "CCOC(=O)CNC(=O)/C=C/c1ccc(OCc2c(-c3c(Cl)cccc3Cl)noc2C(C)C)cc1", "note": "[KS-010, ethyl (E)-(3-(4-((3-(2,6-dichlorophenyl)-5-isopropylisoxazol-4-yl)methoxy)phenyl)acryloyl)glycinate]", "fold induction at 10 µM": 10.5},
      {"smiles": "CCOC(=O)CNC(=O)/C=C/c1ccc(OCc2c(-c3c(Cl)cccc3Cl)noc2C)cc1", "note": "[KS-011, ethyl (E)-(3-(4-((3-(2,6-dichlorophenyl)-5-methylisoxazol-4-yl)methoxy)phenyl)acryloyl)glycinate]", "fold induction at 10 µM": 1.65},
      {"smiles": "CCOC(=O)CNC(=O)/C=C/c1ccc(OCc2c(-c3ccccc3)noc2C)cc1", "note": "[KS-012, ethyl (E)-(3-(4-((5-methyl-3-phenylisoxazol-4-yl)methoxy)phenyl)acryloyl)glycinate]", "fold induction at 10 µM": 1.61},
      {"smiles": "O=C(O)CNC(=O)/C=C/c1ccc(O)cc1", "note": "[KS-013, (E)-(3-(4-hydroxyphenyl)acryloyl)glycine]", "fold induction at 10 µM": 1.46},
      {"smiles": "O=C(O)CNC(=O)/C=C/c1ccc(OCc2ccccc2)cc1", "note": "[KS-014, (E)-(3-(4-(benzyloxy)phenyl)acryloyl)glycine]", "fold induction at 10 µM": 1.42},
      {"smiles": "O=C(O)CNC(=O)/C=C/c1ccc(OCc2ccc(OC(F)(F)F)cc2)cc1", "note": "[KS-015, (E)-(3-(4-((4-(trifluoromethoxy)benzyl)oxy)phenyl)acryloyl)glycine]", "fold induction at 10 µM": 2.65},
      {"smiles": "O=C(O)CNC(=O)/C=C/c1ccc(OCc2ccc(-c3ccccc3)cc2)cc1", "note": "[KS-016, (E)-(3-(4-([1,1′-biphenyl]-4-ylmethoxy)phenyl)acryloyl)glycine]", "fold induction at 10 µM": 1.99},
      {"smiles": "O=C(O)CNC(=O)/C=C/c1ccc(OCc2ccc(F)cc2)cc1", "note": "[KS-017, (E)-(3-(4-((4-fluorobenzyl)oxy)phenyl)acryloyl)glycine]", "fold induction at 10 µM": 1.14},
      {"smiles": "O=C(O)CNC(=O)/C=C/c1ccc(OCc2ccc([N+](=O)[O-])cc2)cc1", "note": "[KS-018, (E)-(3-(4-((4-nitrobenzyl)oxy)phenyl)acryloyl)glycine]", "fold induction at 10 µM": 1.28},
      {"smiles": "O=C(O)CNC(=O)/C=C/c1ccc(OCc2cccc(OC(F)(F)F)c2)cc1", "note": "[KS-019, (E)-(3-(4-((3-(trifluoromethoxy)benzyl)oxy)phenyl)acryloyl)glycine]", "fold induction at 10 µM": 1.19},
      {"smiles": "O=C(O)CNC(=O)/C=C/c1ccc(OCc2cccc([N+](=O)[O-])c2)cc1", "note": "[KS-020, (E)-(3-(4-((3-nitrobenzyl)oxy)phenyl)acryloyl)glycine]", "fold induction at 10 µM": 1.39},
      {"smiles": "O=C(O)CNC(=O)/C=C/c1ccc(OCc2cc(F)c(F)cc2F)cc1", "note": "[KS-021, (E)-(3-(4-((2,4,5-trifluorobenzyl)oxy)phenyl)acryloyl)glycine]", "fold induction at 10 µM": 2.01},
      {"smiles": "CC(C)c1onc(-c2c(Cl)cccc2Cl)c1COc1ccc(/C=C/C(=O)NCC(=O)O)cc1", "note": "[KS-022, (E)-(3-(4-((3-(2,6-dichlorophenyl)-5-isopropylisoxazol-4-yl)methoxy)phenyl)acryloyl)glycine]", "fold induction at 10 µM": 3.34},
      {"smiles": "Cc1onc(-c2c(Cl)cccc2Cl)c1COc1ccc(/C=C/C(=O)NCC(=O)O)cc1", "note": "[KS-023, (E)-(3-(4-((3-(2,6-dichlorophenyl)-5-methylisoxazol-4-yl)methoxy)phenyl)acryloyl)glycine]", "fold induction at 10 µM": 1.93},
      {"smiles": "Cc1onc(-c2ccccc2)c1COc1ccc(/C=C/C(=O)NCC(=O)O)cc1", "note": "[KS-024, (E)-(3-(4-((5-methyl-3-phenylisoxazol-4-yl)methoxy)phenyl)acryloyl)glycine]", "fold induction at 10 µM": 1.68},
      {"smiles": "CCOC(=O)[C@H](C)NC(=O)/C=C/c1ccc(OCc2c(-c3c(Cl)cccc3Cl)noc2C(C)C)cc1", "note": "[KS-025, ethyl (E)-(3-(4-((3-(2,6-dichlorophenyl)-5-isopropylisoxazol-4-yl)methoxy)phenyl)acryloyl)-L-alaninate]", "fold induction at 10 µM": 10.9},
      {"smiles": "CCOC(=O)[C@H](C)NC(=O)/C=C/c1ccc(OCc2c(-c3c(Cl)cccc3Cl)noc2C)cc1", "note": "[KS-026, ethyl (E)-(3-(4-((3-(2,6-dichlorophenyl)-5-methylisoxazol-4-yl)methoxy)phenyl)acryloyl)-L-alaninate]", "fold induction at 10 µM": 1.26},
      {"smiles": "CCOC(=O)[C@H](C)NC(=O)/C=C/c1ccc(OCc2c(-c3ccccc3)noc2C)cc1", "note": "[KS-027, ethyl (E)-(3-(4-((5-methyl-3-phenylisoxazol-4-yl)methoxy)phenyl)acryloyl)-L-alaninate]", "fold induction at 10 µM": 1.04},
      {"smiles": "CC(C)c1onc(-c2c(Cl)cccc2Cl)c1COc1ccc(/C=C/C(=O)N[C@@H](C)C(=O)O)cc1", "note": "[KS-028, (E)-(3-(4-((3-(2,6-dichlorophenyl)-5-isopropylisoxazol-4-yl)methoxy)phenyl)acryloyl)-L-alanine]", "fold induction at 10 µM": 7.44},
      {"smiles": "Cc1onc(-c2c(Cl)cccc2Cl)c1COc1ccc(/C=C/C(=O)N[C@@H](C)C(=O)O)cc1", "note": "[KS-029, (E)-(3-(4-((3-(2,6-dichlorophenyl)-5-methylisoxazol-4-yl)methoxy)phenyl)acryloyl)-L-alanine]", "fold induction at 10 µM": 1.71},
      {"smiles": "Cc1onc(-c2ccccc2)c1COc1ccc(/C=C/C(=O)N[C@@H](C)C(=O)O)cc1", "note": "[KS-030, (E)-(3-(4-((5-methyl-3-phenylisoxazol-4-yl)methoxy)phenyl)acryloyl)-L-alanine]", "fold induction at 10 µM": 0.82},
      {"smiles": "CCOC(=O)[C@@H](NC(=O)/C=C/c1ccc(OCc2c(-c3c(Cl)cccc3Cl)noc2C)cc1)C(C)C", "note": "[KS-032, ethyl (E)-(3-(4-((3-(2,6-dichlorophenyl)-5-methylisoxazol-4-yl)methoxy)phenyl)acryloyl)-L-valinate]", "fold induction at 10 µM": 1.89},
      {"smiles": "CCOC(=O)[C@@H](NC(=O)/C=C/c1ccc(OCc2c(-c3ccccc3)noc2C)cc1)C(C)C", "note": "[KS-033, ethyl (E)-(3-(4-((5-methyl-3-phenylisoxazol-4-yl)methoxy)phenyl)acryloyl)-L-valinate]", "fold induction at 10 µM": 0.93},
      {"smiles": "CC(C)c1onc(-c2c(Cl)cccc2Cl)c1COc1ccc(/C=C/C(=O)N[C@H](C(=O)O)C(C)C)cc1", "note": "[KS-034, (E)-(3-(4-((3-(2,6-dichlorophenyl)-5-isopropylisoxazol-4-yl)methoxy)phenyl)acryloyl)-L-valine]", "fold induction at 10 µM": 8.91}
    ]},
    {"biological_target": "T1, farnesol X receptor (FXR)", "experiment": "Farnesol X receptor (FXR) reporter gene assay (dual luciferase) in HepG2 cells", "type": "cell-based", "conditions": "statement on Table 4 data", "experimental": "as §1, §2", "values": [
      {"smiles": "CCOC(=O)CNC(=O)/C=C/c1ccc(OCc2c(-c3c(Cl)cccc3Cl)noc2C(C)C)cc1", "note": "[KS-010, ethyl (E)-(3-(4-((3-(2,6-dichlorophenyl)-5-isopropylisoxazol-4-yl)methoxy)phenyl)acryloyl)glycinate]", "FXR activating effect compared with GW4064": "superior to GW4064"},
      {"smiles": "CCOC(=O)[C@H](C)NC(=O)/C=C/c1ccc(OCc2c(-c3c(Cl)cccc3Cl)noc2C(C)C)cc1", "note": "[KS-025, ethyl (E)-(3-(4-((3-(2,6-dichlorophenyl)-5-isopropylisoxazol-4-yl)methoxy)phenyl)acryloyl)-L-alaninate]", "FXR activating effect compared with GW4064": "superior to GW4064"},
      {"smiles": "CC(C)c1onc(-c2c(Cl)cccc2Cl)c1COc1ccc(/C=C/C(=O)N[C@@H](C)C(=O)O)cc1", "note": "[KS-028, (E)-(3-(4-((3-(2,6-dichlorophenyl)-5-isopropylisoxazol-4-yl)methoxy)phenyl)acryloyl)-L-alanine]", "FXR activating effect compared with GW4064": "superior to GW4064"},
      {"smiles": "CC(C)c1onc(-c2c(Cl)cccc2Cl)c1COc1ccc(/C=C/C(=O)N[C@H](C(=O)O)C(C)C)cc1", "note": "[KS-034, (E)-(3-(4-((3-(2,6-dichlorophenyl)-5-isopropylisoxazol-4-yl)methoxy)phenyl)acryloyl)-L-valine]", "FXR activating effect compared with GW4064": "superior to GW4064"}
    ]}
  ]
}
